Measured values from PubChem BioAssay (NCI).
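GI50 = concentration required for 50% inhibition of growth. TGI is the concentration that stops growth completely.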

Key:
Assay in all cases: growth of human tumour cells (NCI), 384-well format
MALME-3M melanoma = tested on: MALME-3M melanoma
786-0 renal = tested on: 786-0 renal
OVCAR-8 ovarian = tested on: OVCAR-8 ovarian
M14 melanoma = tested on: M14 melanoma
SK-MEL-28 melanoma = tested on: SK-MEL-28 melanoma
SNB-19 CNS = tested on: SNB-19 CNS
OVCAR-3 ovarian = tested on: OVCAR-3 ovarian
SF-539 CNS = tested on: SF-539 CNS
A549 NSCLC = tested on: A549 NSCLC
MDA-MB-231 breast = tested on: MDA-MB-231 breast
HS 578T breast = tested on: HS 578T breast
ACHN renal = tested on: ACHN renal
HOP-62 NSCLC = tested on: HOP-62 NSCLC
UACC-257 melanoma = tested on: UACC-257 melanoma
NCI-H322M lung = tested on: NCI-H322M lung
HT29 colon = tested on: HT29 colon
HL-60(TB) leukemia = tested on: HL-60(TB) leukemia
NCI-H226 lung = tested on: NCI-H226 lung
UO-31 renal = tested on: UO-31 renal
DU-145 prostate = tested on: DU-145 prostate
HOP-92 NSCLC = tested on: HOP-92 NSCLC
RXF 393 renal = tested on: RXF 393 renal
SK-MEL-5 melanoma = tested on: SK-MEL-5 melanoma
CCRF-CEM leukemia = tested on: CCRF-CEM leukemia
MOLT-4 leukemia = tested on: MOLT-4 leukemia
HCC-2998 colon = tested on: HCC-2998 colon
MCF7 breast = tested on: MCF7 breast
MDA-MB-468 breast = tested on: MDA-MB-468 breast
UACC-62 melanoma = tested on: UACC-62 melanoma
K-562 leukemia = tested on: K-562 leukemia
IGROV1 ovarian = tested on: IGROV1 ovarian
NCI-H460 NSCLC = tested on: NCI-H460 NSCLC
SR leukemia = tested on: SR leukemia
BT-549 breast = tested on: BT-549 breast
NCI/ADR-RES ovarian = tested on: NCI/ADR-RES ovarian
COLO 205 colon = tested on: COLO 205 colon
SW-620 colon = tested on: SW-620 colon
PC-3 prostate = tested on: PC-3 prostate
NCI-H522 lung = tested on: NCI-H522 lung
OVCAR-4 ovarian = tested on: OVCAR-4 ovarian
SNB-75 CNS = tested on: SNB-75 CNS
EKVX NSCLC = tested on: EKVX NSCLC
CAKI-1 renal = tested on: CAKI-1 renal
TK-10 renal = tested on: TK-10 renal
RPMI-8226 leukemia = tested on: RPMI-8226 leukemia
HCT-15 colon = tested on: HCT-15 colon
NCI-H23 lung = tested on: NCI-H23 lung
KM12 colon = tested on: KM12 colon
SK-OV-3 ovarian = tested on: SK-OV-3 ovarian
SN12C renal = tested on: SN12C renal
A498 renal = tested on: A498 renal
SF-268 CNS = tested on: SF-268 CNS
OVCAR-5 ovarian = tested on: OVCAR-5 ovarian
LOX IMVI melanoma = tested on: LOX IMVI melanoma
SF-295 CNS = tested on: SF-295 CNS
MDA-MB-435 melanoma = tested on: MDA-MB-435 melanoma

## C[C@@H]1CCc2ncc(F)cc2[C@H]2CCCN2c2ccn3ncc(c3n2)C(=O)N1
MALME-3M melanoma
  GI50: 4.11 µM
  TGI: > 100 µM
786-0 renal
  GI50: 23.6 µM
  TGI: > 100 µM
OVCAR-8 ovarian
  GI50: > 100 µM
  TGI: > 100 µM
M14 melanoma
  GI50: 28.8 µM
  TGI: > 100 µM
SK-MEL-28 melanoma
  GI50: 70.2 µM
  TGI: > 100 µM
SNB-19 CNS
  GI50: > 100 µM
  TGI: > 100 µM
OVCAR-3 ovarian
  GI50: 48.4 µM
  TGI: > 100 µM
SF-539 CNS
  GI50: 82.1 µM
  TGI: > 100 µM
A549 NSCLC
  GI50: 61.9 µM
  TGI: > 100 µM
MDA-MB-231 breast
  GI50: 18.1 µM
  TGI: > 100 µM
HS 578T breast
  GI50: 7.78 µM
  TGI: > 100 µM
ACHN renal
  GI50: 28 µM
  TGI: > 100 µM
HOP-62 NSCLC
  GI50: 63.4 µM
  TGI: > 100 µM
UACC-257 melanoma
  GI50: 63.3 µM
  TGI: > 100 µM
NCI-H322M lung
  GI50: > 100 µM
  TGI: > 100 µM
HT29 colon
  GI50: 75.5 µM
  TGI: > 100 µM
HL-60(TB) leukemia
  GI50: 63.1 µM
  TGI: > 100 µM
NCI-H226 lung
  GI50: 5.37 µM
  TGI: > 100 µM
UO-31 renal
  GI50: > 100 µM
  TGI: > 100 µM
DU-145 prostate
  GI50: > 100 µM
  TGI: > 100 µM
HOP-92 NSCLC
  GI50: 14.6 µM
  TGI: > 100 µM
RXF 393 renal
  GI50: 3.44 µM
  TGI: > 100 µM
SK-MEL-5 melanoma
  GI50: > 100 µM
  TGI: > 100 µM
CCRF-CEM leukemia
  GI50: 8.73 µM
  TGI: > 100 µM
MOLT-4 leukemia
  GI50: 5.07 µM
  TGI: 20.4 µM
HCC-2998 colon
  GI50: > 100 µM
  TGI: > 100 µM
MCF7 breast
  GI50: 18.5 µM
  TGI: > 100 µM
MDA-MB-468 breast
  GI50: 17 µM
  TGI: 92 µM
UACC-62 melanoma
  GI50: 97.9 µM
  TGI: > 100 µM
K-562 leukemia
  GI50: 7.4 µM
  TGI: 49 µM
IGROV1 ovarian
  GI50: 30.9 µM
  TGI: > 100 µM
NCI-H460 NSCLC
  GI50: > 100 µM
  TGI: > 100 µM
SR leukemia
  GI50: 1.63 µM
  TGI: 3.2 µM
BT-549 breast
  GI50: 76.3 µM
  TGI: > 100 µM
NCI/ADR-RES ovarian
  GI50: > 100 µM
  TGI: > 100 µM
COLO 205 colon
  GI50: 64.9 µM
  TGI: > 100 µM
SW-620 colon
  GI50: > 100 µM
  TGI: > 100 µM
PC-3 prostate
  GI50: > 100 µM
  TGI: > 100 µM
NCI-H522 lung
  GI50: 16.2 µM
  TGI: > 100 µM
OVCAR-4 ovarian
  GI50: 10.3 µM
  TGI: 96.2 µM
SNB-75 CNS
  GI50: 25.4 µM
  TGI: > 100 µM
EKVX NSCLC
  GI50: > 100 µM
  TGI: > 100 µM
CAKI-1 renal
  GI50: 56.1 µM
  TGI: > 100 µM
TK-10 renal
  GI50: > 100 µM
  TGI: > 100 µM
RPMI-8226 leukemia
  GI50: 2.36 µM
  TGI: > 100 µM
HCT-15 colon
  GI50: > 100 µM
  TGI: > 100 µM
NCI-H23 lung
  GI50: 93.8 µM
  TGI: > 100 µM
KM12 colon
  TGI: > 100 µM
SK-OV-3 ovarian
  GI50: 65 µM
  TGI: > 100 µM
SN12C renal
  GI50: 20.8 µM
  TGI: > 100 µM
A498 renal
  GI50: 12.3 µM
  TGI: > 100 µM
SF-268 CNS
  GI50: 94.1 µM
  TGI: > 100 µM
OVCAR-5 ovarian
  GI50: 32.6 µM
  TGI: > 100 µM
LOX IMVI melanoma
  GI50: > 100 µM
  TGI: > 100 µM
SF-295 CNS
  GI50: 30.1 µM
  TGI: > 100 µM
MDA-MB-435 melanoma
  GI50: 57.2 µM
  TGI: > 100 µM
